Drawing on patent US6828441B2 (priority 1998, dated 2004), this text covers melting point for five compounds.

Broadly, the melting point is the temperature, or range, at which the solid turns liquid. Compound `CCOC(=O)C(NC(=O)c1ccc(OC)c(OC)c1)c1ncc(CF)cc1Cl` (centres unmarked) displayed a melting point of 40 to 43 °C.

Regarding `O=C(NC(Cc1ccccc1)c1ncc(C(F)(F)F)cc1Cl)c1c(Cl)cccc1Cl` (centres unmarked), the melting point fell in the range of 164 to 168 °C. The same measure for `O=C(NCc1ncc(Cl)cc1Cl)c1c(Cl)cccc1Cl` [Compound 59, N-[(3,5-dichloro-2-pyridyl)methyl]-2,6-dichlorobenzamide]: 161 to 165 °C; for `CN(Cc1ncc(C(F)(F)F)cc1Cl)C(=O)c1c(Cl)cccc1Cl` [Compound 63, N-[(3-Chloro-5-trifluoromethyl-2-pyridyl)methyl]-N-methyl-2,6-dichlorobenzamide]: 83 to 84 °C.

For the compound `FC(F)(F)c1cnc(CNC(=S)c2ccccc2Cl)c(Cl)c1` [Compound 701, N-[(3-Chloro-5-trifluoromethyl-2-pyridyl)methyl]-2-chlorobenzenethioamide], the melting point was in the range of 102 to 105 °C.
